Measured values published in ChEMBL document CHEMBL4507285, “Data for DCP probe MRL-SYKi” (2021).

Key:
[1] = target: NUAK family SNF1-like kinase 2 (Homo sapiens) (UniProt Q9H093); conditions: Compound concentration 100.0 nM
[2] = target: Mast/stem cell growth factor receptor Kit (Homo sapiens) (UniProt P10721); conditions: Compound concentration 100.0 nM
[3] = target: Cyclin-dependent kinase 8 (Homo sapiens) (UniProt P49336); conditions: Compound concentration 100.0 nM
[4] = target: Discoidin domain-containing receptor 2 (Homo sapiens) (UniProt Q16832); conditions: Compound concentration 100.0 nM
[5] = target: Alpha-2C adrenergic receptor (Homo sapiens) (UniProt P18825); conditions: Compound concentration 10.0 uM
[6] = target: D(1A) dopamine receptor (Homo sapiens) (UniProt P21728); conditions: Compound concentration 10.0 uM
[7] = target: Mast/stem cell growth factor receptor Kit (Homo sapiens) (UniProt P10721); conditions: Compound concentration 100.0 nM; remark: listed apart in the source
[8] = target: Ephrin type-A receptor 6 (Homo sapiens) (UniProt Q9UF33); conditions: Compound concentration 100.0 nM
[9] = target: Mitogen-activated protein kinase kinase kinase 9 (Homo sapiens) (UniProt P80192); conditions: Compound concentration 100.0 nM
[10] = target: Serine/threonine-protein kinase 25 (Homo sapiens) (UniProt O00506); conditions: Compound concentration 100.0 nM
[11] = target: Tyrosine-protein kinase FRK (Homo sapiens) (UniProt P42685); conditions: Compound concentration 100.0 nM
[12] = target: Cyclin-dependent kinase-like 5 (Homo sapiens) (UniProt O76039); conditions: Compound concentration 100.0 nM
[13] = tested on: Tyrosine-protein kinase ABL1 (Homo sapiens), P00519 [E255K]; conditions: Compound concentration 100.0 nM
[14] = target: Phosphatidylinositol 3-kinase C2 domain-containing subunit gamma (Homo sapiens) (UniProt O75747); conditions: Compound concentration 100.0 nM
[15] = tested on: Receptor-type tyrosine-protein kinase FLT3 (Homo sapiens), P36888 [D835V]; conditions: Compound concentration 100.0 nM
[16] = target: Dual specificity protein kinase CLK1 (Homo sapiens) (UniProt P49759); conditions: Compound concentration 100.0 nM
[17] = tested on: Tyrosine-protein kinase ABL1 (Homo sapiens), P00519 [F317L]; conditions: Compound concentration 100.0 nM
[18] = target: Inhibitor of nuclear factor kappa-B kinase subunit alpha (Homo sapiens) (UniProt O15111); conditions: Compound concentration 100.0 nM
[19] = target: Dual specificity protein kinase CLK4 (Homo sapiens) (UniProt Q9HAZ1); conditions: Compound concentration 100.0 nM
[20] = target: Serine/threonine-protein kinase 32C (Homo sapiens) (UniProt Q86UX6); conditions: Compound concentration 100.0 nM
[21] = target: Serine/threonine-protein kinase ULK3 (Homo sapiens) (UniProt Q6PHR2); conditions: Compound concentration 100.0 nM
[22] = target: Histamine H3 receptor (Homo sapiens) (UniProt Q9Y5N1); conditions: Compound concentration 10.0 uM
[23] = target: Mitogen-activated protein kinase 4 (Homo sapiens) (UniProt P31152); conditions: Compound concentration 100.0 nM
[24] = target: 5-hydroxytryptamine receptor 1A (Homo sapiens) (UniProt P08908); conditions: Compound concentration 10.0 uM
[25] = target: Serine/threonine-protein kinase PknB (Mycobacterium tuberculosis) (UniProt P9WI81); conditions: Compound concentration 100.0 nM
[26] = target: Calcium/calmodulin-dependent protein kinase type 1 (Homo sapiens) (UniProt Q14012); conditions: Compound concentration 100.0 nM
[27] = target: Dual specificity tyrosine-phosphorylation-regulated kinase 2 (Homo sapiens) (UniProt Q92630); conditions: Compound concentration 100.0 nM
[28] = target: Ephrin type-B receptor 6 (Homo sapiens) (UniProt O15197); conditions: Compound concentration 100.0 nM
[29] = target: Tyrosine-protein kinase Fyn (Homo sapiens, UniProt P06241); conditions: Compound concentration 100.0 nM
[30] = target: Myosin-IIIa (Homo sapiens) (UniProt Q8NEV4); conditions: Compound concentration 100.0 nM
[31] = target: Myosin-IIIb (Homo sapiens) (UniProt Q8WXR4); conditions: Compound concentration 100.0 nM
[32] = target: Serine/threonine-protein kinase PAK 4 (Homo sapiens) (UniProt O96013); conditions: Compound concentration 100.0 nM
[33] = target: Serine/threonine-protein kinase Nek9 (Homo sapiens) (UniProt Q8TD19); conditions: Compound concentration 100.0 nM
[34] = target: Cyclin-dependent kinase 4 (Homo sapiens) (UniProt P11802); conditions: Compound concentration 100.0 nM
LIM domain kinase 1 = LIM domain kinase 1 (Homo sapiens, UniProt P53667); conditions: Compound concentration 100.0 nM
[35] = target: NT-3 growth factor receptor (Homo sapiens, UniProt Q16288); conditions: Compound concentration 100.0 nM
[36] = target: Citron Rho-interacting kinase (Homo sapiens) (UniProt O14578); conditions: Compound concentration 100.0 nM
[37] = target: Tyrosine-protein kinase Fes/Fps (Homo sapiens) (UniProt P07332); conditions: Compound concentration 100.0 nM
[38] = target: Serine/threonine-protein kinase WNK1 (Homo sapiens) (UniProt Q9H4A3); conditions: Compound concentration 100.0 nM
[39] = target: Casein kinase II subunit alpha' (Homo sapiens) (UniProt P19784); conditions: Compound concentration 100.0 nM
[40] = target: Ribosomal protein S6 kinase alpha-4 (Homo sapiens) (UniProt O75676); conditions: Compound concentration 100.0 nM
[41] = target: Tyrosine-protein kinase JAK1 (Homo sapiens) (UniProt P23458); conditions: Compound concentration 100.0 nM
[42] = target: Tyrosine-protein kinase ABL1 (Homo sapiens) (UniProt P00519); conditions: Compound concentration 100.0 nM
[43] = target: Casein kinase I isoform gamma-1 (Homo sapiens) (UniProt Q9HCP0); conditions: Compound concentration 100.0 nM
[44] = target: Macrophage colony-stimulating factor 1 receptor (Homo sapiens) (UniProt P07333); conditions: Compound concentration 100.0 nM
[45] = target: Serine/threonine-protein kinase Chk1 (Homo sapiens) (UniProt O14757); conditions: Compound concentration 100.0 nM

Mast/stem cell growth factor receptor Kit (Homo sapiens), sequence (P10721 whole entry): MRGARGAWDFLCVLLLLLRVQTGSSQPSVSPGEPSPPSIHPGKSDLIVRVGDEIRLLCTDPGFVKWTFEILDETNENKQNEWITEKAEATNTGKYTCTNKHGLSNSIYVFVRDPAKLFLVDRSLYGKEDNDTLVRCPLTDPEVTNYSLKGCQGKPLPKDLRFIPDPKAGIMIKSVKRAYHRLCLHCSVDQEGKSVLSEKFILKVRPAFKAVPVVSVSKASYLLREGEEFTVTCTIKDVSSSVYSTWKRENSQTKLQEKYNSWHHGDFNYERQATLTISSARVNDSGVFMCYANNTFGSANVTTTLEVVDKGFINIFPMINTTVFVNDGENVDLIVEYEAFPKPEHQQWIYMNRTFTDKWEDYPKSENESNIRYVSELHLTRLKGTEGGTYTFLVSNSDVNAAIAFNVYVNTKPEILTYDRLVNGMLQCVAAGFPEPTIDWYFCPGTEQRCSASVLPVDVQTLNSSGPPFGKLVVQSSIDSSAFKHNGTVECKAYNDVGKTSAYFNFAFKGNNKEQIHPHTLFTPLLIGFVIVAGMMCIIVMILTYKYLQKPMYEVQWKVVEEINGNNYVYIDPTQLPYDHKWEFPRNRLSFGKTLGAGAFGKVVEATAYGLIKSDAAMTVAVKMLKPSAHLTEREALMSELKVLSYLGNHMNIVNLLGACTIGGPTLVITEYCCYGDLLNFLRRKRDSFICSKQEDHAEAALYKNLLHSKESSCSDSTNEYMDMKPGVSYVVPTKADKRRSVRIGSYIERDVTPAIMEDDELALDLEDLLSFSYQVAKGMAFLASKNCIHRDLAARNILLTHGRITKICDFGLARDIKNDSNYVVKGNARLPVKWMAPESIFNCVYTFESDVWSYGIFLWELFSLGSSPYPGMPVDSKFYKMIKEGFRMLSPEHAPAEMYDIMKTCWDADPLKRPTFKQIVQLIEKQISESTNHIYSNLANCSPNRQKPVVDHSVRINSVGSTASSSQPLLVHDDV
Mitogen-activated protein kinase 4 (Homo sapiens), sequence (P31152 whole entry): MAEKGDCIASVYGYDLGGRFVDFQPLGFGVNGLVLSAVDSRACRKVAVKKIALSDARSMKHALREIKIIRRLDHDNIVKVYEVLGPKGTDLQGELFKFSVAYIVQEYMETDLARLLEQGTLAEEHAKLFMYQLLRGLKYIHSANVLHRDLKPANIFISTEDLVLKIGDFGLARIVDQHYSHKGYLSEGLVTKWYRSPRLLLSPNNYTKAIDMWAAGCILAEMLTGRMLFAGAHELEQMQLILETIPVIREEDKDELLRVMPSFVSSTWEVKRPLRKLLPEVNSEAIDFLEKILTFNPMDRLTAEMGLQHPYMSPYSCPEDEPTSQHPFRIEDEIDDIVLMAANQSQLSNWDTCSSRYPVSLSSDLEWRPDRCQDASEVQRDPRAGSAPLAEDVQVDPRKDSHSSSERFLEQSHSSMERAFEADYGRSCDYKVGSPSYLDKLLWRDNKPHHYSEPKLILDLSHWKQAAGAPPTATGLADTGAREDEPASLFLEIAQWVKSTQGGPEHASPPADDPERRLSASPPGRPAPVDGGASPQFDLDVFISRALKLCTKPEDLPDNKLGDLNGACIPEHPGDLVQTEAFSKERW
Serine/threonine-protein kinase 32C (Homo sapiens), sequence (Q86UX6 whole entry): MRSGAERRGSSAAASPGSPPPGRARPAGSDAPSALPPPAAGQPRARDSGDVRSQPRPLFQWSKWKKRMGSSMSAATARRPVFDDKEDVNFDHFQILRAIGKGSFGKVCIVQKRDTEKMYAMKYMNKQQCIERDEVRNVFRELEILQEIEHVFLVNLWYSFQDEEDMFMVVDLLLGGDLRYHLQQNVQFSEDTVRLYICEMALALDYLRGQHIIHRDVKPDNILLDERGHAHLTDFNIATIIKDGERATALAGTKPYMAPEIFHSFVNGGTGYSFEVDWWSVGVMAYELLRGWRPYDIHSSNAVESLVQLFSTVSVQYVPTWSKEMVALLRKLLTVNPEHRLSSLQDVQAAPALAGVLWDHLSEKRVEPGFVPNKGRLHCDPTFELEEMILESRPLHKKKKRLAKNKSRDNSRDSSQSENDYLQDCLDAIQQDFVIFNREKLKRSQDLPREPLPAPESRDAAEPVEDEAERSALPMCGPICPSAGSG
NUAK family SNF1-like kinase 2 (Homo sapiens), sequence (Q9H093 whole entry): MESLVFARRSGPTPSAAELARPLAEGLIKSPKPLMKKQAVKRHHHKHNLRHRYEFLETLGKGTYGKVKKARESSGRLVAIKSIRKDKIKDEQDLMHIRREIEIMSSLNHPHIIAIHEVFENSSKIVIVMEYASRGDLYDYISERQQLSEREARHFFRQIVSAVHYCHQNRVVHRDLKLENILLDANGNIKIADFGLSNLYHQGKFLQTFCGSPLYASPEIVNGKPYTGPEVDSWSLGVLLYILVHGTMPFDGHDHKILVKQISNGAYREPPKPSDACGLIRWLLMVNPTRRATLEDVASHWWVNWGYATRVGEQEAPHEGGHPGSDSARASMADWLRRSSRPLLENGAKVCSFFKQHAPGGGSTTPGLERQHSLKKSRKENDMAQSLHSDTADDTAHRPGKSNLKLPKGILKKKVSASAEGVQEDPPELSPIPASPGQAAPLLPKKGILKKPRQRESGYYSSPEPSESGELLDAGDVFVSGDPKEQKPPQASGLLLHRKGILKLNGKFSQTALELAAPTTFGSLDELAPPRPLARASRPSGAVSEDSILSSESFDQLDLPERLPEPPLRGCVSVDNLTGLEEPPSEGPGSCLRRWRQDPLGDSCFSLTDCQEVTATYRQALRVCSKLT
Alpha-2C adrenergic receptor (Homo sapiens), sequence (P18825 whole entry): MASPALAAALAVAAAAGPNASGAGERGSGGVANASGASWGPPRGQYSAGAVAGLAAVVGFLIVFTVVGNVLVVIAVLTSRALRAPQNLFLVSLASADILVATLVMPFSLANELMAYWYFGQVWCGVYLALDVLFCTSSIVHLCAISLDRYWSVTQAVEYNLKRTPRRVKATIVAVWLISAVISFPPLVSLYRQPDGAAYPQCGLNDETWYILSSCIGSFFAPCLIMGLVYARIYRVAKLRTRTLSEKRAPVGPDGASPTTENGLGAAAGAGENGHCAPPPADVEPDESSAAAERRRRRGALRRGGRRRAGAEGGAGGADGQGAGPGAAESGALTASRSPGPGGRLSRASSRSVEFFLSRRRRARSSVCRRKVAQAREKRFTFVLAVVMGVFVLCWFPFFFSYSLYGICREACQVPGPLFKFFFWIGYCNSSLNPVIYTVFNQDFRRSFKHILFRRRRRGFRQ
Tyrosine-protein kinase ABL1 (Homo sapiens), P00519 [F317L], sequence (P00519 whole entry F317L): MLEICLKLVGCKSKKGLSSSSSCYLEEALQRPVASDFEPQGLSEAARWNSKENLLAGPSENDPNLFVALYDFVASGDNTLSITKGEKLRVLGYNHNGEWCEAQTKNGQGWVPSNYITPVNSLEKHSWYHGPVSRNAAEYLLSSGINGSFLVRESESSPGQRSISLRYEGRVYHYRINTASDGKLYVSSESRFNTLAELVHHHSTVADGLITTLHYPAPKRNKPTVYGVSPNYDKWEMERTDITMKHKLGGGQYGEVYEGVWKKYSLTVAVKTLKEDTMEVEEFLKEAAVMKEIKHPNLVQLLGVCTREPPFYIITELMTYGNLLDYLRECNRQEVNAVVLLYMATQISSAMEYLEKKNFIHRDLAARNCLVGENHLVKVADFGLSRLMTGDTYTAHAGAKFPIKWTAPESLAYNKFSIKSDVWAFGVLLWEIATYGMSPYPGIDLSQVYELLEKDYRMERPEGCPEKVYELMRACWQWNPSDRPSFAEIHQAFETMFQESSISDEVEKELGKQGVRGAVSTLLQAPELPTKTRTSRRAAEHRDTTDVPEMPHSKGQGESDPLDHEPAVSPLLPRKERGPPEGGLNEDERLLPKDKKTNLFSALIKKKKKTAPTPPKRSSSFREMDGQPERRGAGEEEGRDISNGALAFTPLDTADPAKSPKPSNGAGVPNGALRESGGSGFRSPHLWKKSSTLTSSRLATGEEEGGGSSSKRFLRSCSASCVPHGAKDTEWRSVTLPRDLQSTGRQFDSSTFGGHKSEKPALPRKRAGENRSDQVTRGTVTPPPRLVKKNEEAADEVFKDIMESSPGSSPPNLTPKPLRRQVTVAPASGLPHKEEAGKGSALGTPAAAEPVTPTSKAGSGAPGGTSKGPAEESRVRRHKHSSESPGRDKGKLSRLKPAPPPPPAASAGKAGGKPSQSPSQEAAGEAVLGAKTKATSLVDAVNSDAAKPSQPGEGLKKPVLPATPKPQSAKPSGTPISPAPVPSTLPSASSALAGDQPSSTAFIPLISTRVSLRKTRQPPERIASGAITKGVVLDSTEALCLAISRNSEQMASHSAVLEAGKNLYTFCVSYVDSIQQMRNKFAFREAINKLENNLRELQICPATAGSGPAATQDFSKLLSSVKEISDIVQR
Cyclin-dependent kinase 8 (Homo sapiens), sequence (P49336 whole entry, the tested form may be a part): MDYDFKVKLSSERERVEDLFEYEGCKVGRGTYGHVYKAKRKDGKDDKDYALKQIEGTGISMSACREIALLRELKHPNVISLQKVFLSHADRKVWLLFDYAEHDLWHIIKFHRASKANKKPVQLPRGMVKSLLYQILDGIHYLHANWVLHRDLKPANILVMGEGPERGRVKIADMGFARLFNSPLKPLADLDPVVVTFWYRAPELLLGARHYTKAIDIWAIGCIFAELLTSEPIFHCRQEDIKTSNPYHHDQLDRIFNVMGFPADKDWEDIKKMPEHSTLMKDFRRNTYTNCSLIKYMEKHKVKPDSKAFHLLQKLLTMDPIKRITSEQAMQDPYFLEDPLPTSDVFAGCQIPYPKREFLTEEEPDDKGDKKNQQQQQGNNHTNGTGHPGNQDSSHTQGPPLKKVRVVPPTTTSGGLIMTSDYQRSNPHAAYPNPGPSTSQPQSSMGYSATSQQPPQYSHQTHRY
Tyrosine-protein kinase ABL1 (Homo sapiens), sequence (P00519 whole entry, canonical isoform): as the sequence (P00519 whole entry F317L) above, with L317F counted along it
Tyrosine-protein kinase ABL1 (Homo sapiens), P00519 [E255K], sequence (P00519 whole entry E255K, the tested form may be a part): as the sequence (P00519 whole entry F317L) above, with E255K, L317F counted along it

Cc1ccc(-c2cnc([C@@]3(O)CC[C@H](C(=O)O)C(C)(C)C3)s2)cc1Nc1cccc(C(F)(F)F)n1 [MRL-SYKi-NC]
residual activity [1]: 93.1%
residual activity [2]: 100%
residual activity [3]: 78.7%
residual activity [4]: 100%
inhibition [5]: 11.8%
inhibition [6]: 6.26%
residual activity [7]: 100%
residual activity [8]: 100%
residual activity [9]: 100%
residual activity [10]: 72.5%
residual activity [11]: 100%
residual activity [12]: 100%
residual activity [13]: 80.8%
residual activity [14]: 59.6%
residual activity [15]: 100%
residual activity [16]: 83.8%
residual activity [17]: 84.4%
residual activity [18]: 69.7%
residual activity [19]: 65.2%
residual activity [20]: 100%
residual activity [21]: 68.1%
inhibition [22]: 46.4%
residual activity [23]: 100%
inhibition [24]: 17.5%
residual activity [25]: 86.7%
residual activity [26]: 75.3%
residual activity [27]: 82.4%
residual activity [28]: 78.6%
residual activity [29]: 100%
residual activity [30]: 70.1%
residual activity [31]: 100%
residual activity [32]: 100%
residual activity [33]: 80.3%
residual activity [34]: 100%
residual activity (LIM domain kinase 1): 100%
residual activity [35]: 80%
residual activity [36]: 90.9%
residual activity [37]: 100%
residual activity [38]: 100%
residual activity [39]: 59.8%
residual activity [40]: 95.1%
residual activity [41]: 92.6%
residual activity [42]: 78.4%
residual activity [43]: 91.8%
residual activity [44]: 100%
residual activity [45]: 100%

Cc1cc(Nc2nccc(C)n2)cc(-c2cnc([C@@]3(O)CC[C@H](C(=O)O)C(C)(C)C3)s2)c1 [MRL-SYKi]
residual activity [1]: 100%
residual activity [2]: 93.2%
residual activity [3]: 100%
residual activity [4]: 100%
inhibition [5]: -3.94%
inhibition [6]: -7.4%
residual activity [7]: 71.7%
residual activity [8]: 95.8%
residual activity [9]: 90.4%
residual activity [10]: 100%
residual activity [11]: 100%
residual activity [12]: 96.1%
residual activity [13]: 55.1%
residual activity [14]: 95.9%
residual activity [15]: 75.6%
residual activity [16]: 97.9%
residual activity [17]: 69.6%
residual activity [18]: 100%
residual activity [19]: 90.9%
residual activity [20]: 85.9%
residual activity [21]: 56.1%
inhibition [22]: 50.4%
residual activity [23]: 100%
inhibition [24]: -0.0778%
residual activity [25]: 100%
residual activity [26]: 99.3%
residual activity [27]: 100%
residual activity [28]: 34.7%
residual activity [29]: 36.1%
residual activity [30]: 100%
residual activity [31]: 76.1%
residual activity [32]: 89.8%
residual activity [33]: 92.8%
residual activity [34]: 76.9%
residual activity (LIM domain kinase 1): 93.1%
residual activity [35]: 82.6%
residual activity [36]: 100%
residual activity [37]: 100%
residual activity [38]: 100%
residual activity [39]: 100%
residual activity [40]: 100%
residual activity [41]: 31.8%
residual activity [42]: 45.3%
residual activity [43]: 100%
residual activity [44]: 100%
residual activity [45]: 100%
